Several values for one entry are separate records, joined by “and”; a condition that tells them apart may be missing. Identical values can stand only once. Inconclusive results and toxic doses are left out. No stated cut-off is given here; in the data, active means T/C of 150% or more; inactive means T/C below 125%.
System: L1210 leukemia ip in BDF1 mice, survival T/C
Assay: NCI In Vivo Anticancer Drug Screen. Data for tumor model L1210 Leukemia (intraperitoneal) in B6D2F1 (BDF1) mice
Conditions: endpoint: mean survival time, higher = longer survival
Outline: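 Read-out is survival time, reported as the treated-group measurement over the vehicle-control measurement.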

[1] = dose: 100.0 mg/kg/injection, schedule: Q04DX003 (ip), vehicle: Klucel (hydroxypropylcellulose) (HPC)
[2] = dose: 200.0 mg/kg/injection, schedule: Q04DX003 (ip), vehicle: Klucel (hydroxypropylcellulose) (HPC)
[3] = dose: 400.0 mg/kg/injection, schedule: Q04DX003 (ip), vehicle: Klucel (hydroxypropylcellulose) (HPC)
[4] = dose: 25.0 mg/kg/injection, schedule: Q01DX001 (ip), vehicle: carboxymethylcellulose (CMC)
[5] = dose: 50.0 mg/kg/injection, schedule: Q01DX001 (ip), vehicle: carboxymethylcellulose (CMC)
[6] = dose: 100.0 mg/kg/injection, schedule: Q01DX001 (ip), vehicle: carboxymethylcellulose (CMC)
[7] = dose: 200.0 mg/kg/injection, schedule: Q01DX001 (ip), vehicle: carboxymethylcellulose (CMC)

Measured: T/C

CSc1cc(C(=O)Nc2ccc(C3=NCCN3)cc2)ccc1C(=O)Nc1ccc(C2=NCCN2)cc1
active: dose: 3.75 mg/kg/injection, schedule: Q01DX Z (ip), vehicle: carboxymethylcellulose (CMC) 203 % of control | dose: 7.5 mg/kg/injection, schedule: Q01DX Z (ip), vehicle: carboxymethylcellulose (CMC) 231 % of control | dose: 10.0 mg/kg/injection, schedule: Q01DX015 (ip), vehicle: methylcellulose (MC) 231 % of control | dose: 10.0 mg/kg/injection, schedule: Q01DX Z (ip), vehicle: carboxymethylcellulose (CMC) 236 % of control | dose: 15.0 mg/kg/injection, schedule: Q01DX Z (ip), vehicle: carboxymethylcellulose (CMC) 280 % of control | dose: 20.0 mg/kg/injection, schedule: Q01DX015 (ip), vehicle: methylcellulose (MC) 286 % of control | dose: 20.0 mg/kg/injection, schedule: Q01DX Z (ip), vehicle: carboxymethylcellulose (CMC) 287 % of control | dose: 30.0 mg/kg/injection, schedule: Q01DX Z (ip), vehicle: carboxymethylcellulose (CMC) 178 % of control | dose: 40.0 mg/kg/injection, schedule: Q01DX015 (ip), vehicle: methylcellulose (MC) 221 % of control | dose: 40.0 mg/kg/injection, schedule: Q01DX Z (ip), vehicle: carboxymethylcellulose (CMC) 168 % of control | dose: 150.0 mg/kg/injection, schedule: Q01DX001 (ip), vehicle: methylcellulose (MC) 167 % of control
inactive: dose: 0.5 mg/kg/injection, schedule: Q01DX Z (ip), vehicle: carboxymethylcellulose (CMC) 109 % of control | dose: 0.62 mg/kg/injection, schedule: Q01DX015 (ip), vehicle: methylcellulose (MC) 112 % of control | dose: 1.25 mg/kg/injection, schedule: Q01DX015 (ip), vehicle: methylcellulose (MC) 108 % of control | dose: 50.0 mg/kg/injection, schedule: Q01DX Z (oral), vehicle: carboxymethylcellulose (CMC) 102 % of control | dose: 100.0 mg/kg/injection, schedule: Q01DX Z (oral), vehicle: carboxymethylcellulose (CMC) 100 % of control | dose: 200.0 mg/kg/injection, schedule: Q01DX Z (oral), vehicle: carboxymethylcellulose (CMC) 104 % of control | dose: 400.0 mg/kg/injection, schedule: Q01DX Z (oral), vehicle: carboxymethylcellulose (CMC) 95 % of control

COc1c(NC(=O)c2c(Br)c(Br)c(Br)c(Br)c2C(=O)O)cccc1[N+](=O)[O-]
inactive: dose: 100.0 mg/kg/injection, schedule: Q04DX002 (ip), vehicle: Klucel (hydroxypropylcellulose) (HPC) 94 % of control | dose: 200.0 mg/kg/injection, schedule: Q04DX002 (ip), vehicle: Klucel (hydroxypropylcellulose) (HPC) 102 % of control | dose: 400.0 mg/kg/injection, schedule: Q04DX002 (ip), vehicle: Klucel (hydroxypropylcellulose) (HPC) 118 % of control

O=S(=O)(Cc1ccccc1)C(Cl)Cl
inactive: dose: 75.0 mg/kg/injection, schedule: Q01DX001 (ip), vehicle: saline 96 % of control | dose: 150.0 mg/kg/injection, schedule: Q01DX001 (ip), vehicle: saline 94 % of control | dose: 300.0 mg/kg/injection, schedule: Q01DX001 (ip), vehicle: saline 96 % of control

Cc1ccc(S(=O)(=O)N(C)c2ccc3cc(C(=O)O)ccc3c2)cc1
inactive: dose: 100.0 mg/kg/injection, schedule: Q01DX009 (ip), vehicle: Klucel (hydroxypropylcellulose) (HPC) 94 % of control | [1] 102 % of control | dose: 200.0 mg/kg/injection, schedule: Q01DX009 (ip), vehicle: Klucel (hydroxypropylcellulose) (HPC) 95 % of control | [2] 106 % of control | dose: 400.0 mg/kg/injection, schedule: Q01DX009 (ip), vehicle: Klucel (hydroxypropylcellulose) (HPC) 94 % of control | [3] 90 % of control

CCC[P+](c1ccccc1)(c1ccccc1)c1ccccc1
inactive: dose: 3.13 mg/kg/injection, schedule: Q01DX009 (ip), vehicle: saline with Tween-80 123 % of control | dose: 3.13 mg/kg/injection, schedule: Q04DX003 (ip), vehicle: saline with Tween-80 102 % of control | dose: 5.56 mg/kg/injection, schedule: Q01DX009 (ip), vehicle: saline with Tween-80 118 % of control | dose: 6.25 mg/kg/injection, schedule: Q01DX009 (ip), vehicle: saline with Tween-80 118 % of control | dose: 6.25 mg/kg/injection, schedule: Q04DX003 (ip), vehicle: saline with Tween-80 96 % of control | dose: 8.33 mg/kg/injection, schedule: Q01DX009 (ip), vehicle: saline with Tween-80 121 % of control | dose: 9.5 mg/kg/injection, schedule: Q01DX001 (ip), vehicle: other 111 % of control | dose: 12.5 mg/kg/injection, schedule: Q01DX001 (ip), vehicle: carboxymethylcellulose (CMC) 101 % of control | dose: 12.5 mg/kg/injection, schedule: Q04DX003 (ip), vehicle: saline with Tween-80 105 % of control | dose: 12.5 mg/kg/injection, schedule: Q04DX003 (ip), vehicle: saline 100 % of control | dose: 18.75 mg/kg/injection, schedule: Q01DX009 (ip), vehicle: saline with Tween-80 120 % of control | dose: 19.0 mg/kg/injection, schedule: Q01DX001 (ip), vehicle: other 102 % of control | [4] 104 % of control | dose: 25.0 mg/kg/injection, schedule: Q04DX003 (ip), vehicle: saline with Tween-80 105 % of control | dose: 25.0 mg/kg/injection, schedule: Q04DX003 (ip), vehicle: saline 108 % of control | dose: 38.0 mg/kg/injection, schedule: Q01DX001 (ip), vehicle: other 107 % of control | [5] 99 % of control | dose: 50.0 mg/kg/injection, schedule: Q04DX003 (ip), vehicle: saline with Tween-80 105 % of control

CCCCCCCCC1CCC2C3CCC4CC(C(=O)O)C(C(=O)O)CC4(C)C3CCC12C (centres undefined)
inactive: dose: 100.0 mg/kg/injection, schedule: Q01DX001 (ip), vehicle: saline with Tween-80 86 % of control | dose: 200.0 mg/kg/injection, schedule: Q01DX001 (ip), vehicle: saline with Tween-80 87 % of control

O=C(CCCCCCCCC(=O)NCC1(c2ccccc2)CCNCC1)NCC1(c2ccccc2)CCNCC1
inactive: dose: 1.25 mg/kg/injection, schedule: Q01DX Z (ip), vehicle: saline 89 % of control | dose: 2.5 mg/kg/injection, schedule: Q01DX Z (ip), vehicle: saline 88 % of control | dose: 10.0 mg/kg/injection, schedule: Q01DX Z (ip), vehicle: saline 97 % of control and 88 % of control | dose: 30.0 mg/kg/injection, schedule: Q01DX Z (ip), vehicle: saline 87 % of control

C[C@]12CCC(=O)C=C1CC[C@H]1[C@@H]3CCC(=O)O[C@@]3(C)CC(=O)[C@@]12F
inactive: [6] 94 % of control | [7] 100 % of control | dose: 400.0 mg/kg/injection, schedule: Q01DX001 (ip), vehicle: carboxymethylcellulose (CMC) 97 % of control

Nc1nc(Cl)c(C=O)c(Cl)n1
inactive: [4] 97 % of control | [5] 97 % of control | [6] 94 % of control | [7] 103 % of control

O=NN(CCCl)C(=O)Nc1ccc(C(F)(F)F)cc1
inactive: dose: 37.5 mg/kg/injection, schedule: Q01DX Z (ip), vehicle: carboxymethylcellulose (CMC) 108 % of control
active: dose: 4.6 mg/kg/injection, schedule: Q01DX Z (ip), vehicle: carboxymethylcellulose (CMC) 154 % of control | dose: 9.37 mg/kg/injection, schedule: Q01DX Z (ip), vehicle: carboxymethylcellulose (CMC) 166 % of control | dose: 18.75 mg/kg/injection, schedule: Q01DX Z (ip), vehicle: carboxymethylcellulose (CMC) 190 % of control | [5] 151 % of control | dose: 75.0 mg/kg/injection, schedule: Q01DX001 (ip), vehicle: carboxymethylcellulose (CMC) 167 % of control

OC(C/C(CNNc1ccccc1)=N/Nc1ccccc1)(C(F)(F)F)C(F)(F)F
inactive: [1] 96 % of control | [2] 103 % of control | [3] 92 % of control

COc1ccc2nc3cc(Cl)ccc3c(NC(C)CCCN(CCCl)CCCl)c2c1 (centres undefined)
inactive: dose: 0.25 mg/kg/injection, schedule: Q01DX009 (ip), vehicle: saline 108 % of control | dose: 0.25 mg/kg/injection, schedule: Q04DX003 (ip), vehicle: saline 115 % of control | dose: 0.5 mg/kg/injection, schedule: Q01DX009 (ip), vehicle: saline 117 % of control | dose: 0.5 mg/kg/injection, schedule: Q04DX003 (ip), vehicle: saline 100 % of control | dose: 1.0 mg/kg/injection, schedule: Q01DX009 (ip), vehicle: saline 104 % of control | dose: 1.0 mg/kg/injection, schedule: Q04DX003 (ip), vehicle: saline 109 % of control | dose: 2.0 mg/kg/injection, schedule: Q04DX003 (ip), vehicle: saline 116 % of control

O=C1CCC(CC2CCCCC2)CC1
inactive: dose: 100.0 mg/kg/injection, schedule: Q04DX003 (ip), vehicle: saline with Tween-80 100 % of control | dose: 200.0 mg/kg/injection, schedule: Q04DX003 (ip), vehicle: saline with Tween-80 95 % of control
